From patent publication US20130178616A1, “USE OF MODIFIED OLIGO-B-(1,3)-GLUCANES FOR TREATING DISEASES OF THE IMMUNE SYSTEM OLIGO-B-(1,3V-GLUCANE-(1,3)-MANNOSE, OLIGO-B-(1,3)-GLUCANE-(1,3)-MANNITOL AND DERIVATIVES THEREOF, METHODS FOR PREPARING THE SAME AND DRUGS CONTAINING THEM” (ASE & BIO., priority 2006, published 2013)

Assays:
Format in all cases: in vivo, Balb/c mice
[1] = test system: peripheral blood cells; test: Phagocytosis of HEMA particles by peripheral blood cells after injection of the oligosaccharide; conditions: 100 μg/mouse by peritoneal route, 24 hours after injection, control PBS, cells with at least three HEMA particles positive, FIG. 1
Method: (§1) The control used is PBS. The dosages used are 100 μg/mouse.
(§2) One or other of a control, LAM5, LAM7, A0 or A2O were injected, by peritoneal route, into a group of Balb/c mice (Jackson laboratory, Bar Harbor, Me., USA). 24 hours after the injection the mice were sacrificed. The peripheral blood was recovered from the orbital plexus in heparin (5 IU/ml) (Sigma).
After counting, a test for phagocytosis of HEMA particles (synthetic microspheres prepared from 2-hydroxyethylmethacrylate copolymer) was carried out as described in: Rembaum et al., 1976, Vetvicka et al. 1982, Bilej et al., 1989. 0.1 ml of heparinized fresh blood was added to 0.05 ml of diluted HEMA particles (5×10^8/ml) and incubated for 60 minutes at 37° C. under occasional moderate stirring.
At the end of the incubation, the cell suspension was smeared onto microscope slides. The smears were evaluated under an optical microscope after Giemsa staining.
Cells surrounding at least three particles were considered to be positive.

[2] = test system: peritoneal cells; test: Phagocytosis of HEMA particles by cells obtained from the peritoneal cavity after injection of the oligosaccharide; conditions: 100 μg/mouse intraperitoneal, after 24 hours, control PBS, cells with at least six HEMA particles positive, FIG. 2
Method: as §1
One or other of a control, LAM7, LAM5, A0 or A2 were injected, by intraperitoneal route, into a group of Balb/c mice (Jackson laboratory, Bar Harbor, Me., USA).
After 24 hours, the mice were sacrificed, the peritoneal cells were collected in a Hanks medium (Sigma).
After counting of the cells in a haemocytometer, the peritoneal cells were diluted to 1×10^7 in an RPMI 1640 medium (Sigma) with 5% foetal calf serum (Hyclone, Logan, Utah, USA). 2×10^6 cells in 0.2 ml of RPMI 1640 medium with 5% foetal calf serum added were mixed with the same volume of HEMA particles (5×10^8/ml).
The suspension was incubated for 60 minutes at 37° C. under occasional moderate stirring. The incubation was stopped by centrifugation (150 g for 5 minutes) and the pellet was replaced in suspension.
The macrophages with ingested particles were counted under an optical microscope in smears stained with Accustain (modified Wright stain, Sigma).
The cells surrounding at least six particles were considered as being positive.

[3] = test system: peripheral blood cells; test: Differential count in the blood; conditions: 100 μg/mouse, same groups as Example 8; Giemsa staining; control PBS; FIG. 3
Method: as §1, §2
By using the same experimental groups as in Example 8, two additional microscope slides were prepared from each experimental sample. After Giemsa staining, the presence of individual types of cells i.e. monocytes, lymphocytes and granulocytes were evaluated for each slide with an optical microscope.

[4] = test system: peritoneal cells; test: Differential count in the peritoneal cells; conditions: 100 μg/mouse, same groups as Example 8; Giemsa staining; control PBS; FIG. 4
Method: as §1
By using the same experimental groups as in Example 8, two additional microscope slides of each experimental sample were prepared. After Giemsa staining, the presence of individual types of cells i.e. macrophages, lymphocytes and mastocytes were evaluated for each slide with an optical microscope.

For OC[C@H]1O[C@@H](O[C@@H]2[C@@H](O)[C@H](O[C@@H]3[C@@H](O)[C@H](O[C@@H]4[C@@H](O)[C@H](O[C@@H]5[C@@H](O)[C@H](O[C@@H]6[C@H](O)[C@H](O)O[C@H](CO)[C@H]6O)O[C@H](CO)[C@H]5O)O[C@H](CO)[C@H]4O)O[C@H](CO)[C@H]3O)O[C@H](CO)[C@H]2O)[C@H](O)[C@@H](O)[C@@H]1O [Product A2, β-D-glucopyranosyl-(1→3)-β-D-glucopyranosyl-(1→3)-β-D-glucopyranosyl-(1→3)-β-D-glucopyranosyl-(1→3)-β-D-glucopyranosyl-(1→3)-β-D-mannopyranose], the “phagocytosis in the granulocytes” value [1] was “strongly stimulate phagocytosis”, the “phagocytosis in the monocytes” value [1] was “strongly stimulate phagocytosis” and the “phagocytosis in the granulocytes of peritoneal macrophages” value [2] was “strongly stimulate phagocytosis”. The “phagocytosis in the monocytes of peritoneal macrophages” value [2] was “strongly stimulate phagocytosis”, the “number of granulocytes in the peripheral blood” value [3] was “increase the number” and the “number of monocytes in the peripheral blood” value [3] was “increase the number”. For the same compound, the “number of granulocytes in the peritoneal cavity” value [4] was “increase the number” and the “number of monocytes in the peritoneal cavity” value [4] was “increase the number”.
